This assay concerns CHO ml cells. Put plainly: Calcium flux assay. The class given is cell-based. The following applies: CHO ml cells in 384-well microplate loaded with fluorescent calcium ion indicator; carbachol 10 nM, 100 nM, 10 μM; single selected well, frames about two seconds apart. The method, then:
This example, illustrated in FIGS. 6 and 7, describes calcium flux assays conducted using an apparatus constructed in accordance with aspects of the invention.
Cultured CHO ml cells were grown overnight in a 384-well microplate, then loaded with a cell-permeant form of a fluorescent calcium ion indicator for 1 hour. […] The manual addition of carbachol (a calcium flux stimulant) in 10 nM, 100 nM, and 10 μM concentrations was used to mimic small, medium, and large sustained responses.
The figure records the average light intensity in a single selected well as a function of frame number (each frame taken approximately two seconds apart), where the selected well was one to which carbachol was added.
Here, no sustained increase in signal strength was observed, although there were small fluctuations due to shot-to-shot variations in illumination laser intensity.

As to `C[N+](C)(C)CCOC(N)=O` [carbachol], the “fluorescence signal (calcium flux response) after addition of carbachol” value was “rapid increase in the fluorescence signal over the first few frames, with a slow decay”.

(Values after patent US6930314B2, “Light detection device” (Molecular Devices Corporation, priority 2000, dated 2005).)
